Legend:
[1] = 101.3 kPa, Liquid; for speed of sound: 298.15 K
[2] = molar heat capacity at constant pressure; conditions: 298.15 K; 101.3 kPa; Liquid; Flow calorimetry
[3] = xn = mol fraction of the nth substance listed; conditions: 101.3 kPa, Liquid; for speed of sound: 298.15 K

CC1COC(=O)O1 (configuration not stated) [4-methyl-1,3-dioxolan-2-one]
Conditions | molar heat capacity at constant pressure [J/K/mol] | speed of sound [m/s]
[1] | – | 1443
[2] | 166.98 | –

[1]
Conditions | mass density [kg/m3]
308.15 K | 1188.73
318.15 K | 1179.31

CC(=O)N(C)C [N,N-dimethylethanamide]
Conditions | speed of sound [m/s]
[1] | 1458.7

[1]
Conditions | mass density [kg/m3]
308.15 K | 927.294
318.15 K | 918.616

CC(=O)N(C)C [N,N-dimethylethanamide] + CC#N
[3]
Conditions | speed of sound [m/s]
x1 = 0.04872 | 1286.5
x1 = 0.1004 | 1297.5
x1 = 0.1898 | 1315.5
x1 = 0.2932 | 1336.4
x1 = 0.4046 | 1357.3
x1 = 0.503 | 1375.5
x1 = 0.6044 | 1393.7
x1 = 0.7074 | 1410.8
x1 = 0.8048 | 1427.5
x1 = 0.9035 | 1440
x1 = 1 | 1458.7

mass density [kg/m3], [3]
Conditions | 308.15 K | 318.15 K
x1 = 0.00994 | 768.688 | –
x1 = 0.01091 | – | 759.018
x1 = 0.02031 | 771.713 | –
x1 = 0.02054 | – | 761.841
x1 = 0.03016 | 774.535 | –
x1 = 0.0309 | – | 764.83
x1 = 0.04069 | 777.504 | –
x1 = 0.04289 | – | 768.228
x1 = 0.05104 | 780.389 | –
x1 = 0.0529 | – | 771.009
x1 = 0.05848 | 782.424 | –
x1 = 0.05906 | – | 772.711
x1 = 0.06932 | 785.313 | –
x1 = 0.06978 | – | 775.606
x1 = 0.08223 | 788.745 | –
x1 = 0.08535 | – | 779.778
x1 = 0.08742 | – | 780.299
x1 = 0.09057 | 790.902 | –
x1 = 0.1009 | 793.541 | –
x1 = 0.1022 | – | 784.094
x1 = 0.1438 | – | 794.432
x1 = 0.1497 | 805.533 | –
x1 = 0.1834 | – | 803.73
x1 = 0.1884 | 814.49 | –
x1 = 0.2301 | – | 813.975
x1 = 0.237 | 824.887 | –
x1 = 0.2935 | – | 826.829
x1 = 0.3015 | 837.769 | –
x1 = 0.387 | – | 843.966
x1 = 0.4044 | 856.101 | –
x1 = 0.503 | – | 862.53
x1 = 0.5085 | 872.475 | –
x1 = 0.6026 | – | 876.476
x1 = 0.6251 | 888.44 | –
x1 = 0.7047 | – | 889.23
x1 = 0.7059 | 898.16 | –
x1 = 0.8034 | 908.919 | –
x1 = 0.8085 | – | 900.68
x1 = 0.9024 | 918.675 | –
x1 = 0.909 | – | 910.546
x1 = 0.9117 | 919.547 | –
x1 = 0.9144 | – | 911.049
x1 = 0.9215 | – | 911.696
x1 = 0.9216 | 920.459 | –
x1 = 0.932 | – | 912.659
x1 = 0.9322 | 921.402 | –
x1 = 0.941 | 922.202 | –
x1 = 0.9414 | – | 913.506
x1 = 0.9515 | 923.129 | –
x1 = 0.9546 | – | 914.681
x1 = 0.9614 | 924 | –
x1 = 0.963 | – | 915.423
x1 = 0.9712 | 924.844 | –
x1 = 0.9716 | – | 916.181
x1 = 0.9809 | – | 916.988
x1 = 0.9811 | 925.7 | –
x1 = 0.9893 | 926.398 | –
x1 = 0.9911 | – | 917.856
x1 = 1 | 927.294 | 918.616

CC#N [acetonitrile]
Conditions | speed of sound [m/s]
[1] | 1279.6

[1]
Conditions | mass density [kg/m3]
308.15 K | 765.735
318.15 K | 755.763

CC#N [acetonitrile] + CC1COC(=O)O1
Conditions | speed of sound [m/s]
[3], x2 = 0 | 1279.6

[3], x2 = 0
Conditions | mass density [kg/m3]
308.15 K | 765.735
318.15 K | 755.763

CC#N [acetonitrile] + CC(=O)N(C)C
Conditions | speed of sound [m/s]
[3], x2 = 0 | 1279.6

[3], x2 = 0
Conditions | mass density [kg/m3]
308.15 K | 765.735
318.15 K | 755.763

From the NIST ThermoML archive (doi:10.1021/je1005483)
